The record followed here is ChEMBL document CHEMBL1141530, “Synthesis and SAR of 1-acetanilide-4-aminopyrazole-substituted quinazolines: selective inhibitors of Aurora B kinase with potent anti-tumor activity” (Bioorg Med Chem Lett, 2008).

Values after ≈ are worked out from the molar mass of the structure shown. Active and inactive are the calls of the source. No cut-off for these calls is given here.

Series [1] concerns SW-620. The series is described as follows: Antiproliferative activity against human SW620 cells assessed as inhibition of DNA synthesis after 48 hrs by 2-h BrdU uptake assay. Type of series: functional, cell-based.
In series [2] the target is Voltage-gated inwardly rectifying potassium channel KCNH2 (Homo sapiens, UniProt Q12809). The series is described as follows: Inhibition of human ERG by automated whole cell electrophysiology.
Voltage-gated inwardly rectifying potassium channel KCNH2, sequence (Q12809 whole entry): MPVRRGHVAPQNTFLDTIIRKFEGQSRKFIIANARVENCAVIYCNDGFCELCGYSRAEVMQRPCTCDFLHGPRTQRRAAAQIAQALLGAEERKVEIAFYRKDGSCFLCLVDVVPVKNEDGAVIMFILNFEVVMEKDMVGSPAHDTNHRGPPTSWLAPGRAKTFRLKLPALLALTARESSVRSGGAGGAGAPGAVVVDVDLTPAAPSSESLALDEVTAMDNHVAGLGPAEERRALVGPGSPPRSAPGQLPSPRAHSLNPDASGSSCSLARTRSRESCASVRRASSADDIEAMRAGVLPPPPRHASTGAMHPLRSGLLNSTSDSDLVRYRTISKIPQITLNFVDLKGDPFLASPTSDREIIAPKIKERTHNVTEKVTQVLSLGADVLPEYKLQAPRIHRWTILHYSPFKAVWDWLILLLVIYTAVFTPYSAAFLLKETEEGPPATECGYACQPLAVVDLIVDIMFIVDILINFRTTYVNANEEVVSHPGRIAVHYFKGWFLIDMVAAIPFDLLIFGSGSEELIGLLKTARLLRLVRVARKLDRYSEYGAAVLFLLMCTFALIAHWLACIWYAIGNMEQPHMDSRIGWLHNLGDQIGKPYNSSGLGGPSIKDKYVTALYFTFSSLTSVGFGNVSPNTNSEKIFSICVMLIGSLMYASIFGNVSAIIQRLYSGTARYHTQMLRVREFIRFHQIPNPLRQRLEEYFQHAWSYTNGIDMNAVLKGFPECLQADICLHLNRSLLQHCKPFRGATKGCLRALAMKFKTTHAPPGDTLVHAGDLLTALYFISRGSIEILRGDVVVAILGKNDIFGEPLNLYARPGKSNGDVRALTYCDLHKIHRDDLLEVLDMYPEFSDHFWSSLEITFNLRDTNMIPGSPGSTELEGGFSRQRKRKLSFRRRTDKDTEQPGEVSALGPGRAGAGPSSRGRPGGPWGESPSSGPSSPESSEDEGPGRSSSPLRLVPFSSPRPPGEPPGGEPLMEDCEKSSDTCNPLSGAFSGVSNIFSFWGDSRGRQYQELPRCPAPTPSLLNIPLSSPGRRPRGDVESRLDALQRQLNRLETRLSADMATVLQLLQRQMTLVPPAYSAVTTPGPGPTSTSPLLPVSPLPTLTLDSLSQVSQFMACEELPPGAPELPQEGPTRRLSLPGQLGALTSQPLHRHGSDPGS
In series [3] the test system is Mus musculus. Kind of series: Inhibition of histone-H3 phosphorylation in human SW620 cells xenografted mouse at 2.5 mg/kg/day, sc after 48 hrs. Format: functional. Particulars: SW-620, sc, route subcutaneous. A general note: A xenograft is tissue or cells of one species grown in another, often human tumour cells in immunodeficient mice.
Series [4] deals with SW-620. Kind of series: Antitumor activity against human SW620 cells xenografted in mouse assessed as reduction in tumor size at 2.5 mg/kg after 48 hrs. On the set-up: dose 2.5 mg/kg. Format: functional, organism-based.
Series [5] has as its system Mus musculus. Kind of series: Inhibition of histone-H3 phosphorylation in human SW620 cells xenografted mouse at 0.5 mg/kg/day, sc after 48 hrs. Format: functional, organism-based. The note with it: SW-620.
For another series, the target named is Cytochrome P450 3A4 (Homo sapiens, UniProt P08684). The series is described as follows: Inhibition of human CYP3A4. Format: ADME.
Cytochrome P450 3A4, sequence (P08684 whole entry): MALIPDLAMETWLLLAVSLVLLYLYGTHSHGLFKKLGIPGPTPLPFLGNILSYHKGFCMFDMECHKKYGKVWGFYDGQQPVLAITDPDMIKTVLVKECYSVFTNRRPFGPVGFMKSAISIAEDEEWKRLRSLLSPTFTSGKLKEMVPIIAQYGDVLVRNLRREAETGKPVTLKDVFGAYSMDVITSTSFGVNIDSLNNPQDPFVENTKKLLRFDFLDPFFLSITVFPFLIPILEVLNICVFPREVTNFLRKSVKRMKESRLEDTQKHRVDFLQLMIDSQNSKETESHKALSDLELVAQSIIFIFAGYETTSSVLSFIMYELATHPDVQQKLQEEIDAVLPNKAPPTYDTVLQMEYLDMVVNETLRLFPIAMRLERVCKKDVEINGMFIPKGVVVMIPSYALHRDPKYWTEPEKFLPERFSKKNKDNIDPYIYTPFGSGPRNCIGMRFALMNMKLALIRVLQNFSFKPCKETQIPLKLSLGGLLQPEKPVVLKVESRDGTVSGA
A short description of series [6]: Solubility in tris buffer at pH 9. Type of series: physicochemical.
Series [7] deals with SW-620. Kind of series: Antitumor activity against human SW620 cells xenografted in mouse assessed as tumor growth inhibition at 50 mg/kg after 24 hrs. The arrangement: scale not given: the % may be the effect or the level left. Type of series: functional.

In the case of `O=C(Cn1cc(Nc2ncnc3cc(OCCCN4CCC[C@@H]4COP(=O)(O)O)ccc23)cn1)Nc1cccc(F)c1F`, the IC50 in the series with SW-620 [1] was under 0.001 µM; in series [2], over 100 µM; on Cytochrome P450 3A4, 6.1 µM. In the series with Mus musculus [3], this compound gave an inhibition in vivo at 2.5 mg/kg/day of 75%. Besides, the outcome in the series on SW-620 [4] and with Mus musculus [5] was Active. Also, in series [6], the concentration in solution (solubility) was 10000 µg/mL (≈ 16.2 mM). Further, the Activity in the series on SW-620 [7] turned out to be 89%.

A word on the IC50: it is the concentration that inhibits the measured activity by half. What is called inhibition in vivo is the percentage by which the read-out fell short of the control. What is called solubility is how much of the substance goes into solution per volume.
